# Tested on: Trypanosoma brucei
# Experiment: Treatment of Trypanosoma Brucei-infected mice
# Format: in vivo, T. brucei (EATRO 110) in mice (CD-1, males)
# Details: for Mice cured/Total: cured = surviving 30 days after all controls dead
# Source text: Illustrative of the effects of a compound of this invention (i.e., cis-5'-deoxy-5'-(4-amino-2-butenyl )methylaminoadenosine, identified below as MDL Compound) for the treatment of African Trypanosomiasis is an assay using Trypanosoma brucei-infected mice, as follows:
# (a) includes those animals that died.
# (b) MDL Compound was given intraperitoneally three times per day (8:30
# a.m., 12:30 p.m. and 4:30 p.m,) for three consecutive days.
# (c) Eflornithine was given in drinking water for three days.
# Mice (20-22 g, CD-1, males) were infected with 2.5×10^5 T. brucei (EATRO 110) by intraperitoneal injection. Drug treatment commenced 24 h after infection. Mice surviving for 30 days after all controls were dead were considered cured. This method for drug testing is that of Bacchi et al. (1980) Science 210: 332-334, and successfully predicted the utility of eflornithine in human trypanosomiasis.
Compound,Mice cured/Total (2% in drinking water for three days),"Mice cured/Total (dose 10 (unit not given), intraperitoneally three times per day for three consecutive days)","Mice cured/Total (dose 20 (unit not given), intraperitoneally three times per day for three consecutive days)","Mice cured/Total (dose 50 (unit not given), intraperitoneally three times per day for three consecutive days)","Days of Survival (includes those animals that died) (dose 50 (unit not given), intraperitoneally three times per day for three consecutive days, per animal) [days]"
"NCCCC(N)(C(=O)O)C(F)F (centres unmarked) [Eflornithine, reference compound]",3/5,,,,
"CN(C/C=C\CN)C[C@H]1O[C@@H](n2cnc3c(N)ncnc32)[C@H](O)[C@@H]1O [MDL Compound, CIS-5'-DEOXY-5'(4-AMINO-2-BUTENYL)METHYLAMINOADENOSINE]",,2/5,3/5,4/5,12

# — US5416076A, “S-adenosyl methionine decarboxylase inhibitors” (Merrell Dow Pharmaceuticals Inc., priority 1989, dated 1995)
